Literature values as cited in patent US7323476B2, “Myriceric acid derivatives for the treatment of cancer, cardiovascular and inflammatory diseases” (SaviPu Pharmaceuticals, priority 2006, dated 2008).

Columns and labels:
NF-κB = conditions: qualitative statement on natural products of Fig. R
endothelin receptor = conditions: qualitative, earlier studies

Molecule	inhibition of NF-κB (NF-κB)	binding to the endothelin receptor (endothelin receptor)
Theaflavin-3,3′-digallate	potent inhibitor	
myriceric acid A [PM2011A]		already been demonstrated
COc1c(O)cc(O)c2c(=O)cc(-c3ccccc3)oc12 [wogonin]	good activity	
